Laboratory results reported in patent US12415770B2, “Modulators of liver receptor homologue 1 (LRH-1) and uses” (Emory University, priority 2017, dated 2025).
pEC50: −log10 of the molar value.

What was measured:
LRH-1 LBD = target: T1, LRH-1 LBD (Homo sapiens, UniProt O00482); assay: Thermofluor (DSF) assay, purified LRH-1 LBD-His protein; type: binding; details: for ΔTm at 50 µM: 50 μM compound, relative to DLPC-bound LRH-1, read-out: ΔTm (mean +/− SEM) (° C.)
T1 construct: LRH-1 LBD (residues 299-541) in the pMSC7 vector was expressed in BL21 (DE3) pLysS E. coli; made in house; host or cells: E. coli BL21 (DE3) pLysS
Protocol: Thermofluor assays—Purified LRH-1 LBD-His protein (0.2 mg/ml) was incubated overnight with 50 μM of each compound at 4° C. The final DMSO concentration in the reactions was 1%. SYPRO orange dye (Invitrogen) was then added at a 1:1000 dilution. Reactions were heated at a rate of 0.5° C. per minute, using a StepOne Plus Real Time PCR System (ThermoFisher). […] Data were analyzed by first subtracting baseline fluorescence (ligands+SYPRO with no protein) and then fitting the curves using the Bolzman equation (GraphPad Prism, v6) to determine the Tm. […]

LRH-1 = target: T2, LRH-1 (Homo sapiens, UniProt O00482); assay: Luciferase reporter assay (SHP-luc) in HeLa cells transfected with full-length LRH-1; type: cell-based; details: for pEC50 / EC50 (μM): HeLa cells, SHP-luc reporter, 24 hours, 0.03-30 μM; for Relative Efficacy: fold increase over baseline (DMSO-treated cells) relative to the fold increase induced by RJW100
T2 construct: The transfected plasmids included full-length LRH-1 in a pCI vector; expressed in transfected cells; host or cells: HeLa
Protocol: EC50 and Relative Activity values were calculated from luciferase reporter assays.

T1 sequence (O00482 299-541): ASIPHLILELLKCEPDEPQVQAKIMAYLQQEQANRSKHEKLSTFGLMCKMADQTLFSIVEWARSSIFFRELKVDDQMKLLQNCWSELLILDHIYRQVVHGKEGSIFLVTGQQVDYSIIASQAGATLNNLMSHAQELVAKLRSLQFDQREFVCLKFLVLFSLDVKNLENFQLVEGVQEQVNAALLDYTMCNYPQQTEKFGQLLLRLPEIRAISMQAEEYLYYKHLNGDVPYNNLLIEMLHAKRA
T2 sequence (O00482 whole entry): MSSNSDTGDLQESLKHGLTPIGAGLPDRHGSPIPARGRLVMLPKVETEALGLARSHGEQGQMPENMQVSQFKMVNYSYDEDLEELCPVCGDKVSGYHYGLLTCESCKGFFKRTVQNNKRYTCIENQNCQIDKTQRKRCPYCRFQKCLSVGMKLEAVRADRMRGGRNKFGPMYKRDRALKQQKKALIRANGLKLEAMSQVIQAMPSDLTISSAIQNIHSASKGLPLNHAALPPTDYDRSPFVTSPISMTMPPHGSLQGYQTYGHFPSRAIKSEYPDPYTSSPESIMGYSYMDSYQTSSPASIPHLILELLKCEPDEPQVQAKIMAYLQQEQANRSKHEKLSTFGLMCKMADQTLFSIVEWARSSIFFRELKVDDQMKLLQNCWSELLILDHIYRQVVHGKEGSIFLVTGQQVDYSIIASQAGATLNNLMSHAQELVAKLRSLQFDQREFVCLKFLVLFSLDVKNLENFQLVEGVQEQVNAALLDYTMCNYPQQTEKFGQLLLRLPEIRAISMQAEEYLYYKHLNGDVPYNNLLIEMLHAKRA

C=C(c1ccccc1)[C@@]12CC[C@@H](O)[C@@H]1CC(CCCCCCCCO)=C2c1ccccc1 (relative stereo) [Compound 9e, Exo-5-(8-hydroxyoctyl)-4-phenyl-3a-(1-phenylvinyl)-1,2,3,3a,6,6a-hexahydropentalen-1-ol]
ΔTm at 50 µM (LRH-1 LBD): 4 °C
pEC50 (LRH-1): 6.15
Relative Efficacy (LRH-1): 1.52

C=C(c1ccccc1)[C@@]12CC[C@@H](OS(N)(=O)=O)C1CC(CCCCCC)=C2c1ccccc1 (stereo partly drawn) [Compound 28-exo, (Endo or Exo)-5-hexyl-4-phenyl-3a-(1-phenylvinyl)-1,2,3,3a,6,6a-hexahydropentalen-1-yl sulfamate]
ΔTm at 50 µM (LRH-1 LBD): 5.1 °C

C=C(c1ccccc1)[C@@]12CC[C@@H](O)[C@@H]1CC(CCCCCCCCCOP(=O)([O-])OCC[N+](C)(C)C)=C2c1ccccc1 (relative stereo) [Compound 10g, 9-(6-exo-hydroxy-3-phenyl-3a-(1-phenylvinyl)-1,3a,4,5,6,6a-hexahydropentalen-2-yl)nonyl (2-(trimethylammonio)ethyl) phosphate]
ΔTm at 50 µM (LRH-1 LBD): < 1 °C
pEC50 (LRH-1): 5.70
Relative Efficacy (LRH-1): 2.74

C=C(c1ccccc1)[C@@]12CC[C@@H](O)[C@@H]1CC(CCCCO)=C2c1ccccc1 (relative stereo) [Compound 5e, Exo-5-(4-hydroxybutyl)-4-phenyl-3a-(1-phenylvinyl)-1,2,3,3a,6,6a-hexahydropentalen-1-ol]
ΔTm at 50 µM (LRH-1 LBD): 3.1 °C
pEC50 (LRH-1): 5.85
Relative Efficacy (LRH-1): 0.83

C=C(c1ccccc1)[C@@]12CC[C@@H](O)C1CC(CCCCCCCCOC(C)=O)=C2c1ccccc1 (stereo partly drawn) [Compound 47-exo, (Exo or Endo) 8-(6-hydroxy-3-phenyl-3a-(1-phenylvinyl)-1,3a,4,5,6,6a-hexahydropentalen-2-yl)octyl acetate]
ΔTm at 50 µM (LRH-1 LBD): 1.5 °C
pEC50 (LRH-1): 6.15
Relative Efficacy (LRH-1): 3.70

C=C(c1ccccc1)[C@@]12CC[C@@H](N=[N+]=[N-])C1CC(CCCCCC)=C2c1ccccc1 (stereo partly drawn) [Compound 31-exo, (Endo or Exo)-5-hexyl-4-phenyl-3a-(1-phenylvinyl)-1,2,3,3a,6,6a-hexahydropentalen-1-azide]
ΔTm at 50 µM (LRH-1 LBD): < 1 °C
pEC50 (LRH-1): 5.70
Relative Efficacy (LRH-1): 0.45

C=C(c1ccccc1)C12CCC(O)C1CC(CCCCCCO)=C2c1ccccc1 (stereo not drawn) [Compound 7e, Exo-5-(6-hydroxyhexyl)-4-phenyl-3a-(1-phenylvinyl)-1,2,3,3a,6,6a-hexahydropentalen-1-ol]
ΔTm at 50 µM (LRH-1 LBD): 3.3 °C
pEC50 (LRH-1): 6.00
Relative Efficacy (LRH-1): 1.74

C=C(c1ccccc1)[C@@]12CC[C@@H](O)C1CC(CCCCCC)=C2c1cccc(N)c1 (mixture of isomers) [Compound 15g, (Exo)-4-(3-aminophenyl)-5-hexyl-3a-(1-phenylvinyl)-1,2,3,3a,6,6a-hexahydropentalen-1-ol]
ΔTm at 50 µM (LRH-1 LBD): < 1 °C
EC50 (μM) (LRH-1): cnc
Relative Efficacy (LRH-1): 0.70

C=C(c1ccccc1)[C@@]12CC[C@@H](N)C1CC(CCCCCC)=C2c1ccccc1 (stereo partly drawn) [Compound 33-exo, (Endo or Exo)-5-hexyl-4-phenyl-3a-(1-phenylvinyl)-1,2,3,3a, 6,6a-hexahydropentalen-1-amine]
ΔTm at 50 µM (LRH-1 LBD): -3 °C
Relative Efficacy (LRH-1): 0.56

C=C(c1ccccc1)C12CCC(O)C1CC(CCCCCCOP(=O)([O-])OCC[N+](C)(C)C)=C2c1ccccc1 (stereo not drawn) [Compound 7g, 6-(6-exo-hydroxy-3-phenyl-3a-(1-phenylvinyl)-1,3a,4,5,6,6a-hexahydropentalen-2-yl)hexyl(2-(trimethylammonio)ethyl) phosphate]
ΔTm at 50 µM (LRH-1 LBD): < 1 °C
EC50 (μM) (LRH-1): cnc
Relative Efficacy (LRH-1): 0.00

C=C(c1ccccc1)[C@@]12CC[C@H](NC(N)=O)C1CC(CCCCCC)=C2c1ccccc1 (stereo partly drawn) [Compound 36-endo, 1-((endo or exo)-5-hexyl-4-phenyl-3a-(1-phenylvinyl)-1,2,3,3a, 6,6a-hexahydropentalen-1-yl) urea]
ΔTm at 50 µM (LRH-1 LBD): 1.1 °C

C=C(c1ccccc1)[C@@]12CC[C@@H](O)[C@@H]1CC(CCCCCCCC(=O)O)=C2c1ccccc1 (relative stereo) [Compound 9f, 8-(6-exo-hydroxy-3-phenyl-3a-(1-phenylvinyl)-1,3a,4,5,6,6a-hexahydropentalen-2-yl)octanoic acid]
ΔTm at 50 µM (LRH-1 LBD): 4.4 °C
pEC50 (LRH-1): 5.40
Relative Efficacy (LRH-1): 2.48

C=C(c1ccccc1)C12CCC(O)C1CC(CCCCCCCC(=O)N1CCC(COP(=O)([O-])OCC[N+](C)(C)C)C1)=C2c1ccccc1 [Compound 13b, ((3R)-1-(8-(6-(exo)-hydroxy-3-phenyl-3a-(1-phenylvinyl)-1,3a,4,5,6,6a-hexahydropentalen-2-yl)octanoyl)pyrrolidin-3-yl)methyl (2-(trimethylammonio)ethyl)phosphate]
pEC50 (LRH-1): 4.92
Relative Efficacy (LRH-1): 0.96

C=C(c1ccccc1)[C@@]12CC[C@@H](O)C1CC(CCCCCC)=C2c1cc(O)ccc1F (mixture of isomers) [Compound 16f, (Exo)-4-(2-fluoro-5-hydroxyphenyl)-5-hexyl-3a-(1-phenylvinyl)-1,2,3,3a,6,6a-hexahydropentalen-1-ol]
ΔTm at 50 µM (LRH-1 LBD): < 1 °C
pEC50 (LRH-1): < 4.52
Relative Efficacy (LRH-1): 0.9

C=C(c1ccccc1)C12CCC(OS(=O)(=O)NC(N)=O)C1CC(CCCCCC)=C2c1ccccc1 (stereo not drawn) [Compound 50-endo, (Endo or Exo)-5-hexyl-4-phenyl-3a-(1-phenylvinyl)-1,2,3,3a,6,6a-hexahydropentalen-1-yl carbamoylsulfamate]
stabilization of LRH-1-ligand complex / Tm shift (LRH-1 LBD; WT LRH-1): greatly stabilized the LRH-1-ligand complex
LRH-1 activation (LRH-1; WT LRH-1): comparable or slightly higher LRH-1 activation

C=C(c1ccccc1)[C@@]12CC[C@@H](NC(N)=O)C1CC(CCCCCC)=C2c1ccccc1 (stereo partly drawn) [Compound 36-exo, 1-((endo or exo)-5-hexyl-4-phenyl-3a-(1-phenylvinyl)-1,2,3,3a, 6,6a-hexahydropentalen-1-yl) urea]
ΔTm at 50 µM (LRH-1 LBD): -1.4 °C

C=C(c1ccccc1)[C@@]12CC[C@H](OS(N)(=O)=O)C1CC(CCCCCC)=C2c1ccccc1 (stereo partly drawn) [Compound 28-endo, (Endo or Exo)-5-hexyl-4-phenyl-3a-(1-phenylvinyl)-1,2,3,3a,6,6a-hexahydropentalen-1-yl sulfamate]
ΔTm at 50 µM (LRH-1 LBD): 8 °C

C=C(c1ccccc1C)[C@@]12CC[C@@H](O)C1CC(CCCCCC)=C2c1ccccc1 (mixture of isomers) [Compound 21, (Exo)-5-hexyl-4-phenyl-3a-(1-(o-tolyl)vinyl)-1,2,3,3a,6,6a-hexahydropentalen-1-ol]
ΔTm at 50 µM (LRH-1 LBD): 1.3 °C

C=C(c1ccccc1)C12CCC(CN)C1CC(CCCCCC)=C2c1ccccc1 (stereo not drawn) [Compound 48-endo, (endo or exo) (5-hexyl-4-phenyl-3a-(1-phenylvinyl)-1,2,3,3a,6,6a-hexahydropentalen-1-10 yl)methanamine]
ΔTm at 50 µM (LRH-1 LBD): 0 °C

C=C(c1ccc(Br)cc1)[C@@]12CC[C@@H](O)C1CC(CCCCCC)=C2c1ccccc1 (mixture of isomers) [Compound 23a, (Exo)-3a-(1-(4-bromophenyl)vinyl)-5-hexyl-4-phenyl-1,2,3,3a,6,6a-hexahydropentalen-1-ol]
EC50 (μM) (LRH-1): cnc
Relative Efficacy (LRH-1): 0.06

C=C(c1ccccc1)[C@@]12CC[C@@H](O)[C@@H]1CC(CCCCCCCC(=O)OC[C@H](COP(=O)([O-])OCC[N+](C)(C)C)OC(=O)CC)=C2c1ccccc1 [Compound 14d, (2R)-3-((8-(6-(exo)-hydroxy-3-phenyl-3a-(1-phenylvinyl)-1,3a,4,5,6,6a-hexahydropentalen-2-yl)octanoyl)oxy)-2-(propionyloxy) propyl(2-(trimethylammonio)ethyl) phosphate]
pEC50 (LRH-1): 4.77
Relative Efficacy (LRH-1): 3.35

C=C(c1ccccc1F)[C@@]12CC[C@@H](O)C1CC(CCCCCC)=C2c1ccccc1 (mixture of isomers) [Compound 20, (Exo)-3a-(1-(2-fluorophenyl)vinyl)-5-hexyl-4-phenyl-1,2,3,3a,6,6a-hexahydropentalen-1-ol]
ΔTm at 50 µM (LRH-1 LBD): 1.4 °C

C=C(c1ccccc1)[C@@]12CC[C@H](NC(C)=O)C1CC(CCCCCC)=C2c1ccccc1 (stereo partly drawn) [Compound 35-endo, N-((endo or exo)-5-hexyl-4-phenyl-3a-(1-phenylvinyl)-1,2,3,3a,6,6a-hexahydropentalen-1-yl) acetamide]
ΔTm at 50 µM (LRH-1 LBD): 0.4 °C

C=C(c1ccccc1)C12CC(O)C(CN)C1CC(CCCCCC)=C2c1ccccc1 (stereo not shown) [Compound 51, 3-(aminomethyl)-5-hexyl-6-phenyl-6a-(1-phenylvinyl)-1,2,3,3a,4,6a-hexahydropentalen-2-ol]
EC50 (μM) (LRH-1): cnc
Relative Efficacy (LRH-1): 0.65

C=C(c1ccccc1)[C@@]12CC[C@@H](OC(=O)NS(=O)(=O)O)C1CC(CCCCCC)=C2c1ccccc1 (stereo partly drawn) [Compound 40-exo, ((((endo or exo)-5-hexyl-4-phenyl-3a-(1-phenylvinyl)-1,2,3,3a, 6,6a-hexahydropentalen-1-yl)oxy)carbonyl)sulfamic acid]
pEC50 (LRH-1): < 4.52
Relative Efficacy (LRH-1): 0

C=C(c1ccccc1)[C@@]12CC[C@@H](O)C1CC(CCCCCC)=C2c1cc(O)ccc1C (mixture of isomers) [Compound 17f, (Exo)-5-hexyl-4-(5-hydroxy-2-methylphenyl)-3a-(1-phenylvinyl)-1,2,3,3a,6,6a-hexahydropentalen-1-ol]
ΔTm at 50 µM (LRH-1 LBD): -1.9 °C

C=C(c1ccccc1)C12CC(O)C(O)C1CC(CCCCCC)=C2c1ccccc1 (stereo not shown) [Compound 52, 5-hexyl-4-phenyl-3a-(1-phenylvinyl)-1,2,3,3a,6,6a-hexahydropentalene-1,2-diol]
pEC50 (LRH-1): 8.00
Relative Efficacy (LRH-1): −0.25
